From PubChem BioAssay (NCI)
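Following 48 hours of exposure in 96-well plates, responses at five concentrations were used to interpolate endpoints linearly. GI50 marks 50% less growth. The concentration for full growth arrest is given as TGI.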

Columns and labels:
Assay in all cases: inhibition of tumour cell growth, NCI panel, 48 h
NCI/ADR-RES ovarian = tested on: NCI/ADR-RES ovarian
KM12 colon = tested on: KM12 colon
CAKI-1 renal = tested on: CAKI-1 renal
HOP-62 NSCLC = tested on: HOP-62 NSCLC
OVCAR-3 ovarian = tested on: OVCAR-3 ovarian
OVCAR-8 ovarian = tested on: OVCAR-8 ovarian
A498 renal = tested on: A498 renal
SK-MEL-2 melanoma = tested on: SK-MEL-2 melanoma
RXF 393 renal = tested on: RXF 393 renal
HT29 colon = tested on: HT29 colon
M14 melanoma = tested on: M14 melanoma
NCI-H460 lung = tested on: NCI-H460 lung
U251 CNS = tested on: U251 CNS
K-562 leukemia = tested on: K-562 leukemia
SF-268 CNS = tested on: SF-268 CNS
HOP-92 NSCLC = tested on: HOP-92 NSCLC
T-47D breast = tested on: T-47D breast
A549 NSCLC = tested on: A549 NSCLC
MDA-MB-435 = tested on: MDA-MB-435
IGROV1 ovarian = tested on: IGROV1 ovarian
SW-620 colon = tested on: SW-620 colon
CCRF-CEM leukemia = tested on: CCRF-CEM leukemia
SNB-75 CNS = tested on: SNB-75 CNS
HCT-15 colon = tested on: HCT-15 colon
SK-OV-3 ovarian = tested on: SK-OV-3 ovarian
UACC-257 melanoma = tested on: UACC-257 melanoma
786-0 renal = tested on: 786-0 renal
TK-10 renal = tested on: TK-10 renal
LOX IMVI melanoma = tested on: LOX IMVI melanoma

O=C(CCCCCCSc1nc(-c2ccccc2)cc(-c2ccccc2)n1)NO
GI50 (NCI/ADR-RES ovarian): 0.699 µM | TGI (NCI/ADR-RES ovarian): 6.15 µM | GI50 (KM12 colon): 3.22 µM | TGI (KM12 colon): 15.9 µM | GI50 (CAKI-1 renal): 1.56 µM | TGI (CAKI-1 renal): 6.39 µM | GI50 (HOP-62 NSCLC): 1.93 µM | TGI (HOP-62 NSCLC): 8.06 µM | GI50 (OVCAR-3 ovarian): 2.15 µM | TGI (OVCAR-3 ovarian): 9.26 µM | GI50 (OVCAR-8 ovarian): 1.79 µM | TGI (OVCAR-8 ovarian): 16.9 µM | GI50 (A498 renal): 1.69 µM | TGI (A498 renal): 4.05 µM | GI50 (SK-MEL-2 melanoma): 3.94 µM | TGI (SK-MEL-2 melanoma): 21 µM | GI50 (RXF 393 renal): 1.72 µM | TGI (RXF 393 renal): 4.42 µM | GI50 (HT29 colon): 2.02 µM | TGI (HT29 colon): 11.3 µM | GI50 (M14 melanoma): 1.58 µM | TGI (M14 melanoma): 5.94 µM | GI50 (NCI-H460 lung): 1.4 µM | TGI (NCI-H460 lung): 11.7 µM | GI50 (U251 CNS): 1.51 µM | TGI (U251 CNS): 4.08 µM | GI50 (K-562 leukemia): 1.58 µM | TGI (K-562 leukemia): 12 µM | GI50 (SF-268 CNS): 2.7 µM | TGI (SF-268 CNS): 7.42 µM | GI50 (HOP-92 NSCLC): 1.75 µM | TGI (HOP-92 NSCLC): 4.95 µM | GI50 (T-47D breast): 1.86 µM | TGI (T-47D breast): 8.21 µM | GI50 (A549 NSCLC): 2.45 µM | TGI (A549 NSCLC): 10.4 µM | GI50 (MDA-MB-435): 1.98 µM | TGI (MDA-MB-435): 11.2 µM | GI50 (IGROV1 ovarian): 2.25 µM | TGI (IGROV1 ovarian): 10.3 µM | GI50 (SW-620 colon): 1.49 µM | TGI (SW-620 colon): 12.8 µM | GI50 (CCRF-CEM leukemia): 0.535 µM | TGI (CCRF-CEM leukemia): 5.36 µM | GI50 (SNB-75 CNS): 1.7 µM | TGI (SNB-75 CNS): 14 µM | GI50 (HCT-15 colon): 2.29 µM | TGI (HCT-15 colon): 10.6 µM | GI50 (SK-OV-3 ovarian): 2.42 µM | TGI (SK-OV-3 ovarian): 8.84 µM | GI50 (UACC-257 melanoma): 2.23 µM | TGI (UACC-257 melanoma): 11.1 µM | GI50 (786-0 renal): 1.91 µM | TGI (786-0 renal): 4.48 µM | GI50 (TK-10 renal): 2.51 µM | TGI (TK-10 renal): 13.5 µM | GI50 (LOX IMVI melanoma): 1.86 µM
